This note sets out measurements from patent US8470828B2, “Anellated pyridine compounds” (Hoffmann-La Roche Inc., priority 2010, dated 2013).

In one data set the target is T1, human D2 receptor (Homo sapiens, UniProt P14416).
T1 construct: expressed in transfected cells; host or cells: HEK293 EBNA cells, transient transfection; membrane preparation
Put plainly: Radioligand binding to cloned human D2 receptor expressed in HEK-293 EBNA cells ([3H]-spiperone). The note with it: HEK293 EBNA cell membranes, approximately 0.7 nM [3H]-spiperone, 1 h at RT.

The next data set deals with human D3 receptor (Homo sapiens, UniProt P35462). Nature of the data set: Radioligand binding to cloned human D3 receptor expressed in HEK-293 EBNA cells ([3H]-spiperone).
The target of a further data set is human 5-HT2A receptor (Homo sapiens, UniProt P28223). Put plainly: Radioligand binding to cloned human 5-HT2A receptor expressed in HEK-293 EBNA cells ([3H]-ketanserin).
Chain of human 5-HT2A receptor (P28223 whole entry): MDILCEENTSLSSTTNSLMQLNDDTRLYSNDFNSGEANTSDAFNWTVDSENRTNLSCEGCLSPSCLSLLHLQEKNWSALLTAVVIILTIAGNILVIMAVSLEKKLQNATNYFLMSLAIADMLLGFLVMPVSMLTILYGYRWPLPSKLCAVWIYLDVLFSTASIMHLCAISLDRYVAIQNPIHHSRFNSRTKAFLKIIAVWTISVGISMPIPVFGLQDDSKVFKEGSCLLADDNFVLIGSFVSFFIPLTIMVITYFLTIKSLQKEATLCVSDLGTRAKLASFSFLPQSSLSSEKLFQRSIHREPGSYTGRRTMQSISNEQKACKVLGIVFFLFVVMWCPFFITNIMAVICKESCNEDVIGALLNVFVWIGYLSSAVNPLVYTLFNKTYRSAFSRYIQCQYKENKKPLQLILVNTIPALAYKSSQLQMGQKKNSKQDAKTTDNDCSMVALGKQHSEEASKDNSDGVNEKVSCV

T1 sequence (P14416 whole entry): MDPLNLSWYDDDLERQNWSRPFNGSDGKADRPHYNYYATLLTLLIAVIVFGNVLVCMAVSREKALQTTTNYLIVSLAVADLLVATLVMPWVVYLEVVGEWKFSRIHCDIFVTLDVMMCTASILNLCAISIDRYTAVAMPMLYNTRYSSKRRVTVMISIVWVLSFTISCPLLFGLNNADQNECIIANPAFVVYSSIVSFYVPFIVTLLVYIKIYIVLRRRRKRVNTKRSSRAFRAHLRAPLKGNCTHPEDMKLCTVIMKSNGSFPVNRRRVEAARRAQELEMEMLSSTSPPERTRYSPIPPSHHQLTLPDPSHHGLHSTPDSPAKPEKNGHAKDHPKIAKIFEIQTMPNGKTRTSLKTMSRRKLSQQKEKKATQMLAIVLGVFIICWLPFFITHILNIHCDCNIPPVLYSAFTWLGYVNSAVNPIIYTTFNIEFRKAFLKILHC
Chain of human D3 receptor (P35462 whole entry): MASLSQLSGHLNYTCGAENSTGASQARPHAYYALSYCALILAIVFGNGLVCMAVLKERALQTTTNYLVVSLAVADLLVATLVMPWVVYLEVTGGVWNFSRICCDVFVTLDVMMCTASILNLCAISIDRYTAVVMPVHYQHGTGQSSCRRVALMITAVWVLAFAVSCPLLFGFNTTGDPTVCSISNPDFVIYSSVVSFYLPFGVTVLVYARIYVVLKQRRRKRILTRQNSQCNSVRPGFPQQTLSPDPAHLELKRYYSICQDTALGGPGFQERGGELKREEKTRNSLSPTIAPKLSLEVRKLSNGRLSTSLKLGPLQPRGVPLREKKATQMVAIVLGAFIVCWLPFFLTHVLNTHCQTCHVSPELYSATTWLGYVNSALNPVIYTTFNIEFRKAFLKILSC
Description for human 5-HT2A receptor: (§1) HEK293 EBNA cells were transiently transfected with expression plasmids encoding for the human D2 or D3 or for the human 5-HT2A receptor, respectively. The cells were harvested 48 h post-transfection, washed three times with cold PBS and stored at −80° C. prior to use. The pellet was suspended in cold 50 mM Tris-HCl buffer comprising 10 mM EDTA (pH 7.4) and was homogenized with a Polytron (Kinematica A G, Basel, Switzerland) for 20-30 sec at 12.000 rpm. After centrifugation at 48.000×g for 30 min at 4° C., the pellet was resuspended in cold 10 mM Tris-HCl buffer comprising 0.1 mM EDTA (pH 7.4), homogenized, and centrifuged as above. This pellet was further resuspended in a smaller volume of ice cold 10 mM Tris-HCl buffer comprising 0.1 mM EDTA (pH 7.4) and homogenized with a Polytron for 20-30 sec at 12.000 rpm. The protein content of this homogenate was determined with the Bio-Rad (Bradford) Protein Assay (Biorad Laboratories GmbH, München, Germany) according to the instructions of the manufacturer using gamma globulin as the standard. This homogenate was stored at −80° C. in aliquots and thawed immediately prior to use.
(§2) Aliquots of membrane preparations were thawed at RT, resupended in assay buffer (D2, D3: 50 mM Tris-HCl, 120 mM NaCl, 5 mM MgCl2, 1 mM EDTA, 5 mM KCl, 1.5 mM CaCl2, pH=7.4; 5-HT2A: 50 mM Tris-HCl, 10 mM MgCl2, 1 mM EGTA, pH=7.4), homogenized with a Polytron for 20-30 sec at 12.000 rpm and adjusted to a final concentration of approximately 7.5 μg protein/well (D2, D3) and 15 μg protein/well (5-HT2A), respectively.
(§3) The binding affinity (Ki) of the compounds was determined using radioligand binding. Membranes were incubated in a total volume of 200 μl with a fixed concentration of radioligand (final concentration approximately 0.7 nM [^3H]-spiperone for D2, 0.5 nM [^3H]-spiperone for D3, and 1.1 nM [^3H]-ketanserin for 5-HT2A) and ten concentrations of test compound in ranging between 10 μM-0.1 nM for 1 h at RT. At the end of the incubation, the reaction mixtures were filtered on to unifilter 96-well white microplates with bonded GF/C filters (Packard BioScience, Zürich, Switzerland; preincubated for 1 h in 0.1% polyethylenimine (PEI) in assay buffer) with a Filtermate 196 harvester (Packard BioScience) and washed 3 times with cold assay buffer. The nonspecific binding was determined with equally composed reaction mixtures in the presence of 10 μM unlabelled spiperone. Per well 45 μl of Microscint 40 (Perkin Elmer, Schwerzenbach, Switzerland) was added, plates for sealed, shaken for 20 min and counted for 3 min on a Topcount Microplate Scintillation Counter (Can berra Packard S A, Zürich, Switzerland) with quenching correction.
(§4) The CPM value for each duplicate of a concentration of competing compound was averaged (y1), then the % specific binding was calculated according to the equation (((y1−non-specific)/(total binding−non-specific))×100). Graphs were plotted with the % specific binding using XLfit, a curve fitting program that iteratively plots the data using Levenberg-Marquardt algorithm. The single site competition analysis equation used was y=A+((B−A)/(1+((x/C)D))), where y is the % specific binding, A is the minimum y, B is the maximum y, C is the IC50, x is the log 10 of the concentration of the competing compound and D is the slope of the curve (the Hill Coefficient). […] The affinity constant (Ki) was calculated using the Cheng-Prusoff equation Ki=(IC50/1+([L]/Kd), where [L] is the concentration of radioligand and Kd is the dissociation constant of the radioligand at the receptor as determined by the saturation isotherm.
Description for human D3 receptor: as §1, §2, §3, §4

The Ki is a dissociation constant, usually derived from enzyme kinetics or from competition with a known ligand. Low values mean higher affinity, high ones lower affinity. A word on the melting point: it is the temperature, or range, at which the solid turns liquid. Compound `CC[C@H](O)CC(=O)N[C@H]1CC[C@H](CCN2CCN(c3nccc4c3OCC4)CC2)CC1` [Example 48, trans-(S)-3-Hydroxy-pentanoic acid (4-{2-[4-(2,3-dihydro-furo[2,3-c]pyridin-7-yl)-piperazin-1-yl]-ethyl}-cyclohexyl)-amide] displayed a melting point of 217 °C. The same compound came in with a Ki at human D2 receptor of 1090 nM. The same compound gave a Ki on human D3 receptor of 18.2 nM. This compound returned a Ki at human 5-HT2A receptor of 56.8 nM.
In the case of `O=C(CCO)N[C@H]1CC[C@H](CCN2CCN(c3nccc4c3OCC4)CC2)CC1` [Example 49, trans-N-(4-{2-[4-(2,3-Dihydro-furo[2,3-c]pyridin-7-yl)-piperazin-1-yl]-ethyl}-cyclohexyl)-3-hydroxy-propionamide], the melting point turned out to be 257 °C. Moreover, on human D2 receptor, the Ki was found to be 723 nM. Further, the Ki on human D3 receptor is 10.4 nM. On human 5-HT2A receptor, the inhibitory constant (Ki) came to 82.3 nM.
The matching figures for `O=C(N[C@H]1CC[C@H](CCN2CCN(c3nccc4c3OCC4)CC2)CC1)C(F)(F)F` [Example 50, trans-N-(4-{2-[4-(2,3-Dihydro-furo[2,3-c]pyridin-7-yl)-piperazin-1-yl]-ethyl}-cyclohexyl)-2,2,2-trifluoro-acetamide]: 198.5 °C, 551 nM, 29.5 nM and 45.7 nM.
Take `CCCCC(=O)N[C@H]1CC[C@H](CCN2CCN(c3nccc4c3OCC4)CC2)CC1` [Example 51, Pentanoic acid trans-(4-{2-[4-(2,3-dihydro-furo[2,3-c]pyridin-7-yl)-piperazin-1-yl]-ethyl}-cyclohexyl)-amide]: the melting point was 168 °C. The Ki on human D2 receptor is 726 nM. Besides, the Ki on human D3 receptor was determined as 10.4 nM. The affinity at human 5-HT2A receptor corresponds to a Ki of 50.3 nM.
Turning to `CO[C@H]1CC[C@H](CC(=O)N[C@H]2CC[C@H](CCN3CCN(c4nccc5c4OCC5)CC3)CC2)C1` [Example 52, trans-N-(4-{2-[4-(2,3-Dihydro-furo[2,3-c]pyridin-7-yl)-piperazin-1-yl]-ethyl}-cyclohexyl)-2-((1S,3S)-3-methoxy-cyclopentyl)-acetamide], the melting point turned out to be 199 °C. This compound showed a Ki on human D2 receptor of 948 nM. For the same compound, the inhibition constant Ki at human D3 receptor worked out at 13.4 nM. Further, the Ki on human 5-HT2A receptor was found to be 44 nM.
Compound `O=CN[C@H]1CC[C@H](CCN2CCN(c3nccc4c3OCC4)CC2)CC1` [Example 53, trans-N-(4-{2-[4-(2,3-Dihydro-furo[2,3-c]pyridin-7-yl)-piperazin-1-yl]-ethyl}-cyclohexyl)-formamide] showed a melting point of 153.5 °C. For the same compound, affinity on human D2 receptor was put at a Ki of 1110 nM. This compound came in with a Ki on human D3 receptor of 23.1 nM. This compound also showed a Ki on human 5-HT2A receptor of 70.2 nM.
The matching figures for `O=C(N[C@H]1CC[C@H](CCN2CCN(c3nccc4c3OCC4)CC2)CC1)c1ccc(Cl)cc1` [Example 54, trans-4-Chloro-N-(4-{2-[4-(2,3-dihydro-furo[2,3-c]pyridin-7-yl)-piperazin-1-yl]-ethyl}-cyclohexyl)-benzamide]: 251.5 °C, 2390 nM, 12.6 nM and 66.7 nM.
Turning to `O=C(N[C@H]1CC[C@H](CCN2CCN(c3nccc4c3OCC4)CC2)CC1)c1ccc(C(F)(F)F)cc1` [Example 55, trans-N-(4-{2-[4-(2,3-Dihydro-furo[2,3-c]pyridin-7-yl)-piperazin-1-yl]-ethyl}-cyclohexyl)-4-trifluoromethyl-benzamide], the melting point came to 242.5 °C. For the same compound, the “D2 Ki” value at human D2 receptor was “inactive”. At human D3 receptor, this compound gave a Ki of 51.5 nM. Besides, affinity at human 5-HT2A receptor was put at a Ki of 78.7 nM.
For `CC(C)(C)c1ccc(C(=O)N[C@H]2CC[C@H](CCN3CCN(c4nccc5c4OCC5)CC3)CC2)cc1` [Example 56, trans-4-tert-Butyl-N-(4-{2-[4-(2,3-dihydro-furo[2,3-c]pyridin-7-yl)-piperazin-1-yl]-ethyl}-cyclohexyl)-benzamide], the melting point was found to be 183 °C. The same compound came in with a Ki on human D2 receptor of 1930 nM. In addition, the Ki on human D3 receptor worked out at 79.5 nM. Besides, the Ki at human 5-HT2A receptor was 67.4 nM.
As to `O=C(N[C@H]1CC[C@H](CCN2CCN(c3nccc4c3OCC4)CC2)CC1)c1ccc(N2CCCCC2)cc1` [Example 57, trans-N-(4-{2-[4-(2,3-Dihydro-furo[2,3-c]pyridin-7-yl)-piperazin-1-yl]-ethyl}-cyclohexyl)-4-piperidin-1-yl-benzamide], the melting point is 182.5 °C. For the same compound, the Ki at human D2 receptor stood at 1760 nM. This compound also registered a Ki on human D3 receptor of 42.7 nM. The compound further came in with a Ki on human 5-HT2A receptor of 50.6 nM.
`CC(C)(O)C(=O)N[C@H]1CC[C@H](CCN2CCN(c3nccc4c3OCC4)CC2)CC1` [Example 59, trans-N-(4-{2-[4-(2,3-Dihydro-furo[2,3-c]pyridin-7-yl)-piperazin-1-yl]-ethyl}-cyclohexyl)-2-hydroxy-2-methyl-propionamide] had a melting point of 241 °C. The compound also came in with a Ki on human D2 receptor of 1130 nM. The compound further gave a Ki at human D3 receptor of 44.7 nM. The same compound yielded an inhibition constant (Ki) on human 5-HT2A receptor of 8.48 nM.
The compound `O=C(N[C@H]1CC[C@H](CCN2CCN(c3nccc4c3OCC4)CC2)CC1)c1ccc2c(c1)OCO2` [Example 60, Benzo[1,3]dioxole-5-carboxylic acid trans-(4-{2-[4-(2,3-dihydro-furo[2,3-c]pyridin-7-yl)-piperazin-1-yl]-ethyl}-cyclohexyl)-amide] came in with a melting point of 213.5 °C. The compound also yielded a Ki on human D2 receptor of 348 nM. On human D3 receptor, this compound returned a Ki of 7.32 nM. On human 5-HT2A receptor, this compound showed a Ki of 23 nM.
On the same counts, the results for `Cc1cc(C(=O)N[C@H]2CC[C@H](CCN3CCN(c4nccc5c4OCC5)CC3)CC2)on1` [Example 61, 3-Methyl-isoxazole-5-carboxylic acid trans-(4-{2-[4-(2,3-dihydro-furo[2,3-c]pyridin-7-yl)-piperazin-1-yl]-ethyl}-cyclohexyl)-amide] are 199 °C, 488 nM, 26.1 nM and 48.6 nM.
As to `COC(CC(=O)N[C@H]1CC[C@H](CCN2CCN(c3nccc4c3OCC4)CC2)CC1)OC` [Example 62, trans-N-(4-{2-[4-(2,3-Dihydro-furo[2,3-c]pyridin-7-yl)-piperazin-1-yl]-ethyl}-cyclohexyl)-3,3-dimethoxy-propionamide], the melting point was 218 °C. Further, the affinity on human D2 receptor corresponds to a Ki of 1280 nM. This compound registered a Ki on human D3 receptor of 7.22 nM. Besides, the Ki at human 5-HT2A receptor turned out to be 38.2 nM.
Turning to `COC(CCC(=O)N[C@H]1CC[C@H](CCN2CCN(c3nccc4c3OCC4)CC2)CC1)OC` [Example 63, trans-N-(4-{2-[4-(2,3-Dihydro-furo[2,3-c]pyridin-7-yl)-piperazin-1-yl]-ethyl}-cyclohexyl)-4,4-dimethoxy-butyramide], the melting point worked out at 204.5 °C. At human D2 receptor, the affinity corresponds to a Ki of 1920 nM. Also, the Ki on human D3 receptor is 22.1 nM. At human 5-HT2A receptor, this compound gave a Ki of 35.3 nM.
In the case of `Cc1nc(-c2cccc(C(=O)N[C@H]3CC[C@H](CCN4CCN(c5nccc6c5OCC6)CC4)CC3)c2)no1` [Example 64, trans-N-(4-{2-[4-(2,3-Dihydro-furo[2,3-c]pyridin-7-yl)-piperazin-1-yl]-ethyl}-cyclohexyl)-3-(5-methyl-[1,2,4]oxadiazol-3-yl)-benzamide], the melting point is 227.5 °C. For the same compound, on human D2 receptor, the “D2 Ki” value is “inactive”. Also, on human D3 receptor, the affinity, expressed as Ki, was 4.43 nM. Also, the Ki on human 5-HT2A receptor came out at 54.4 nM.
